Measured values as given in patent US20260014143A1, “Prostaglandin E synthase 3 (PTGES3) Inhibiting Compounds” (The Regents of the University of California, priority 2022, published 2026).
“Also recorded” adds a separate entry of the source.

Assays:
[1] = test system: cysteine 76 of cyslite PTGES3; experiment: Labeling of cysteine 76 of cyslite PTGES3 at 100 uM compound; assay type: binding
Experimental: (§1) Compounds were tested at 100 uM for the ability to label cysteine 76 of cyslite PTGES3. In some cases labeling was not detected. Cyslite PTGES3 was then fully labeled with the compounds and the thermal shift values of the fully labeled protein was determined with stabilization values indicated below. […] Finally, select compounds were tested to determine if they inhibited cell growth in AR+LNCaP cells.

[2] = test system: Recombinant CysLite PTGES3; experiment: Differential scanning fluorimetry (thermal shift) of fully labeled CysLite PTGES3; assay type: binding; settings: cyslite PTGES3 fully labeled with compound
Experimental: Recombinant […] PTGES3 at a concentration of 8 μM in 50 mM HEPES pH 7.5, 150 mM NaCl were incubated with compounds or DMSO for unlabeled comparisons, at ambient temperature until complete labeling was observed by intact protein mass spectrometry. 7K Zeba Desalting columns (ThermoFisher) were used to remove excess compound. The Zeba 7K columns were first preequilibrated with 50 mM HEPES (pH 7.5), 150 mM NaCl. Sypro Orange (500x, DMSO) was added to the purified protein-small molecule conjugates to a final concentration of 5x Sypro Orange. These DSF assays were performed in triplicate in white 96-well plates. The plate was sealed with optically clear PCR sealing film (USA Scientific). The thermal shift assay was performed on a Bio-Rad CFX qPCR instrument. The temperature was increased from 23° C. to 95° C. at a rate of 0.5° C./s. After each temperature step, fluorescence was monitored with an excitation of 492 nm and emission of 610 nm. Raw fluorescence values were normalized between 0 and 1 and fit to a Boltzman equation using GraphPad Prism with the maximum value of the fit constrained to 1.

AR+ LNCaP cells = experiment: Cell growth of AR+ LNCaP cells; assay type: cell-based
Experimental: (§2) Normalized to DMSO and analyzed by IncuCyte system (n=3 as biological replicates; Mean±SEM).
as §1
LNCaP cell lines were grown in the RPMI 1640 medium (Gibco) supplemented with 10% fetal bovine serum (FBS; Gibco). Cells were grown in a humidified 5% CO2 incubator at 37° C.

[3] = Parallel artificial membrane permeability assay (PAMPA); assay type: in vitro ADME
[4] = test system: AR protein levels, LNCaP cells; experiment: AR protein levels in LNCaP cells by western blotting; assay type: cell-based; settings: 100 μM, 48 h, nuclear AR, western blot
Experimental: Nuclear AR and TBP levels were detected by western blotting. Each western blot experiment was performed twice to determine reproducibility.

[5] = test system: AR target genes, LNCaP cells; experiment: AR target gene mRNA levels in LNCaP cells by real-time PCR; assay type: cell-based; settings: 100 μM, 48 h, mRNA over 18s rRNA
Experimental: RNA was collected, indicated genes mRNA levels over 18s rRNA were measured by real-time PCR (n=3 as biological replicates; Mean±SEM).

AR-independent PC3 cells = experiment: Cell growth of AR-independent PC3 cells; assay type: cell-based
Experimental: as §2
Fold change of cell count normalized over day 0 was analyzed by IncuCyte system (n=3 as biological replicates; Mean SEM). Unpaired two-tailed t-test was used to determine statistical significance (ns=no significant difference; *** P<0.001).

[6] = target: T1, Recombinant CysLite PTGES3 (cysteine 76) (Homo sapiens, UniProt Q15185); experiment: Dose response assay: labeling of recombinant CysLite PTGES3 by intact protein mass spectrometry; assay type: binding; settings: 100 uM BME, 1 μM protein, 1 h ambient temperature; read-out: EC50 with 100 uM BME competitor (half maximal labeling of cyslite PTGES3)
T1 sequence (Q15185 1-160): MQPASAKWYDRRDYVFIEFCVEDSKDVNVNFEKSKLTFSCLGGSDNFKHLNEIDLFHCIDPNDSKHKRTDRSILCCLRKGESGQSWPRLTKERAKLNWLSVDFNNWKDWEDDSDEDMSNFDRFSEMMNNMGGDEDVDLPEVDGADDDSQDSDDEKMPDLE
Experimental: Recombinant CysLite PTGES3 (1 μM, 50 mM Tris-HCl, pH 8.0, 150 mM NaCl and 100 μM βME) were incubated for 1 h at ambient temperature with lead fragments (4% DMSO) in a 7-, 8- or 9-point threefold serial dilution series in duplicate. Reactions were quenched by the addition of formic acid to a final concentration of 0.4%. Labeling was determined by intact protein mass spectrometry.

[7] = test system: Recombinant CysLite PTGES3; experiment: BME competition assay: labeling of CysLite PTGES3 at high BME competitor; assay type: binding; settings: 200 uM compound
Experimental: Recombinant CysLite PTGES3 (1 μM, 50 mM Tris-HCl, pH 8.0, 150 mM NaCl) were incubated with 200 μM fragment (2% DMSO) and 500 μM or 1 mM BME at ambient temperature for 8 h. Reactions were quenched by the addition of formic acid to a final concentration of 0.4%. Labeling was determined by intact protein mass spectrometry.

PTGES3-AR interaction = experiment: Far western blot of AR-PTGES3 interaction; assay type: biochemical; settings: CysLite PTGES3 pre-modified with compound
Experimental: Flag-AR was loaded on a gel, transferred to membrane, and renatured. The membranes were incubated with recombinant CysLite PTGES3 protein or recombinant CysLite PTGES3 protein labeled with 1. The interaction was detected with PTGES3 antibody. […] Each blot experiment was performed twice to determine reproducibility.

[8] = test system: PTGES3 enhanced AR/ARE binding; experiment: AR/ARE gel shift (EMSA) assay; assay type: biochemical; settings: DHT+ buffer, free ARE DNA detected by SYBR gold
Experimental: The reactions were then loaded on a DNA retardation gel. ARE DNA bands were detected by SYBR gold. […] Experiment was performed twice to determine reproducibility.
Electrophoretic mobility shift assays (EMSA) were performed using recombinant AR protein (EMD Millipore) and 3×ARE dsDNA from the ARR3TK plasmid. Protein-DNA complexes were allowed to incubate in room temperature for 30 min in loading buffer (20 mM HEPES, 100 mM KCl, 2 ng/ml poly(dI-dC), 10% glycerol, and 20 nM DHT), followed by electrophoresis on 6% DNA Retardation Gels in TBE buffer (PH 8.0). Visualization of protein-DNA complexes was performed with SYBR Gold DNA staining dye (Invitrogen).

| SMILES | 4 h labeling (100 uM) [1] | 24 h labeling (100 uM) [1] [%] | Thermal Shift (Cyslite PTGES3) ΔTm [2] | further results |
| --- | --- | --- | --- | --- |
| C=CS(=O)(=O)N[C@@H]1CN(C(=O)c2cc(F)c(O)c(Cl)c2)C[C@H]1c1ccccc1 [Compound 3] | 5.27% | 28.15 | ΔTm + 3.3 °C | – |
| C=CS(=O)(=O)N[C@@H]1CN(C(=O)c2cc(F)cc(Cl)c2)C[C@H]1c1ccccc1 [Compound 8] | Not detected | 14.74 | – | – |
| COC(=O)[C@@H]1CN(C(=O)c2cc(F)c(O)c(Cl)c2)C[C@H]1c1ccccc1 (racemic) [Compound 2] | – | – | – | AR + cell line activity (growth of AR-driven LNCaP cells) (AR+ LNCaP cells): significantly reduced and inhibit cell proliferation in AR+ and Yes; PAMPA assay [3]: Permeable; AR protein levels [4]: significantly reduced; Expression of AR target genes [5]: significantly reduced; Growth of AR-independent PC3 (AR−) cells (AR-independent PC3 cells): not AR-independent PC3 cells; also recorded: not AR− negative cell lines |
| C=CS(=O)(=O)NC1CN(C(=O)[C@@H]2CN(C(=O)c3ccc(S(N)(=O)=O)c(F)c3)C[C@H]2c2ccccc2)C1 [Compound 14] | 7.18% | 48.46 | No stabilization | Cell activity (inhibited cell growth in AR+ LNCaP cells) (AR+ LNCaP cells): No |
| CN(C)CCSSCCNC(=O)[C@@H]1CN(C(=O)c2cc(F)c(O)c(Cl)c2)C[C@H]1c1ccccc1 [Compound 994364] | – | – | increases the thermal melt temperature | – |
| C=CS(=O)(=O)N[C@@H]1CN(C(=O)c2ccc(S(=O)(=O)NC)cc2)C[C@H]1c1ccccc1 [Compound 7] | 7.21% | 36.40 | ΔTm + 2.1 C. ° C. | – |
| C=CS(=O)(=O)NCCNC(=O)[C@@H]1CN(C(=O)c2ccc(S(N)(=O)=O)c(F)c2)C[C@H]1c1ccccc1 [Compound 13] | Not detected | 13.63 | No stabilization | – |
| CN(C)CCSSCCNC(=O)[C@@H]1CN(C(=O)c2cc(F)c(O)c(Cl)c2)C[C@H]1c1ccccc1 (racemic) [Compound 1] | – | – | confirmed by DSF to stabilize CysLite PTGES3 | EC50 [6]: 70.6 µM; % Labeling in presence of 500 uM BME competitor ([7]; 500 uM BME): 79.03%; % Labeling in presence of 1 mM BME competitor ([7]; 1 mM BME): 76.67%; PTGES3-AR interaction (far western blot) (PTGES3-AR interaction): ablated in vitro PTGES3-AR interaction; also recorded: disrupted the PTGS3-AR interaction; PTGES3 enhanced AR/ARE binding (gel shift) [8]: inhibited PTGES3 enhanced AR/ARE binding; also recorded: increases the free ARE levels; Thermal Shift (Cyslite PTGES3) ΔTm ([2]; listed as compound 1): 1.6 °C |
| C=CS(=O)(=O)N[C@@H]1CN(C(=O)c2ccccc2)C[C@H]1c1ccccc1 [Compound 4] | 4.01% | 20.75 | ΔTm + 1.9 °C | – |
| C=CS(=O)(=O)N[C@@H]1CN(C(=O)c2ccc(S(N)(=O)=O)c(Cl)c2)C[C@H]1c1ccccc1 [Compound 10] | Not detected | 27.44 | ΔTm + 3.3 °C | – |
| C=CS(=O)(=O)N[C@@H]1CN(C(=O)c2ccc(S(N)(=O)=O)c(F)c2)C[C@H]1c1ccccc1 [Compound 9] | 12.38% | 51.4 | ΔTm + 3.3 °C | Cell activity (inhibited cell growth in AR+ LNCaP cells) (AR+ LNCaP cells): Yes |
| C=CS(=O)(=O)N1CCN(C(=O)[C@@H]2CN(C(=O)c3ccc(S(N)(=O)=O)c(F)c3)C[C@H]2c2ccccc2)CC1 [Compound 12] | 6.27% | 36.65 | No stabilization | – |
| C=CS(=O)(=O)N[C@@H]1CN(C(=O)c2ccc(S(N)(=O)=O)cc2)C[C@H]1c1ccccc1 [Compound 6] | 9.61% | 44.20 | ΔTm + 3.0 °C | Cell activity (inhibited cell growth in AR+ LNCaP cells) (AR+ LNCaP cells): Yes |
| C=CS(=O)(=O)N[C@@H]1CN(C(=O)c2ccc(O)cc2)C[C@H]1c1ccccc1 [Compound 5] | 4.71% | 35.51 | – | – |
| C=CS(=O)(=O)N[C@@H]1CN(C(=O)c2cccc(S(N)(=O)=O)c2)C[C@H]1c1ccccc1 [Compound 11] | 17.84% | 72.62 | ΔTm + 0.4 °C | Cell activity (inhibited cell growth in AR+ LNCaP cells) (AR+ LNCaP cells): Yes |
